Values joined by “and” are separate entries in the source; they are usually repeats but may differ in a detail not shown here. Equal entries are not always repeated.
Test: Pharmacokinetic evaluation of liquid bevirimat dosage forms, oral gavage, male Cynomolgus monkeys
Procedure: Six male Cynomolgus monkeys having an initial body weight of about 3.5 to about 4.5 kg are allowed 7 days to acclimate to their individual housing units. Monkeys are supplied with water and a commercial diet ad libitum prior to the study initiation. Food is withheld from the monkeys for a minimum of twelve hours before the study and during the study until four hours postdose when food is returned. Water is supplied ad libitum.
Test formulations are administered to the monkeys at time 0 on appropriate days. Test formulations will be dosed orally via oral gavage or intravenously.
Samples are drawn at the frequencies indicated below. Each blood sample (0.5 mL) is collected from the monkey's saphenous vein via a butterfly catheter and placed into a chilled polypropylene tube containing sodium heparin as the anticoagulant. Blood samples are centrifuged at a temperature of 4° C. at a speed of 3,000 rpm for 15 minutes. All samples are maintained chilled throughout processing. Plasma is collected after centrifugation, pipetted into a 2-mL polypropylene microtube, and frozen on dry-ice pending analytical evaluation.

[1] = oral, 50 mg/monkey, PG/glycerin/Vitamin ETPGS/Tween80/Plasdone C15 formulation, individual monkey
[2] = oral, 50 mg/monkey, PG/glycerin/Vitamin ETPGS/ethanol formulation, individual monkey
[3] = oral, 200 mg/monkey, PG/glycerin/Vitamin ETPGS/ethanol formulation, individual monkey

C=C(C)[C@@H]1CC[C@]2(C(=O)O)CC[C@]3(C)[C@H](CC[C@@H]4[C@@]5(C)CC[C@H](OC(=O)CC(C)(C)C(=O)O)C(C)(C)[C@@H]5CC[C@]43C)[C@@H]12 [Bevirimat, 3-O-(3′,3′-dimethylsuccinyl)betulinic acid]
concentration at 6 hr (male, cynomolgus monkey, in vivo, po, 200 mg/monkey, Plasma Concentration, PG/glycerin/Vitamin ETPGS/ethanol formulation, 6.0 hr, individual monkey): 79400 ng/mL
concentration at 8 hr (male, cynomolgus monkey, in vivo, po, 200 mg/monkey, Plasma Concentration, PG/glycerin/Vitamin ETPGS/ethanol formulation, 8.0 hr, AVG): 51300 ng/mL
concentration at 8 hr (male, cynomolgus monkey, in vivo, po, 200 mg/monkey, Plasma Concentration, PG/glycerin/Vitamin ETPGS/ethanol formulation, 8.0 hr, individual monkey): 53400 ng/mL
concentration at 12 hr (male, cynomolgus monkey, in vivo, po, 200 mg/monkey, Plasma Concentration, PG/glycerin/Vitamin ETPGS/ethanol formulation, 12 hr, AVG): 19600 ng/mL
concentration at 12 hr (male, cynomolgus monkey, in vivo, po, 200 mg/monkey, Plasma Concentration, PG/glycerin/Vitamin ETPGS/ethanol formulation, 12 hr, individual monkey): 15600 ng/mL
concentration at 24 hr (male, cynomolgus monkey, in vivo, po, 200 mg/monkey, Plasma Concentration, PG/glycerin/Vitamin ETPGS/ethanol formulation, 24 hr, AVG): 4840 ng/mL
concentration at 48 hr (male, cynomolgus monkey, in vivo, po, 200 mg/monkey, Plasma Concentration, PG/glycerin/Vitamin ETPGS/ethanol formulation, 48 hr, AVG): 2620 ng/mL
concentration at 72 hr (male, cynomolgus monkey, in vivo, po, 200 mg/monkey, Plasma Concentration, PG/glycerin/Vitamin ETPGS/ethanol formulation, 72 hr, AVG): 296 ng/mL
Plasma Concentration (oral, 50 mg/monkey, PG/glycerin/Vitamin ETPGS/Tween80/Plasdone C15 formulation, 0.25 hr, individual monkey): 56.3 ng/mL and 67.8 ng/mL
Plasma Concentration (oral, 50 mg/monkey, PG/glycerin/Vitamin ETPGS/Tween80/Plasdone C15 formulation, 0.50 hr, individual monkey): 409 ng/mL and 2660 ng/mL and 7590 ng/mL
Plasma Concentration (oral, 50 mg/monkey, PG/glycerin/Vitamin ETPGS/Tween80/Plasdone C15 formulation, 1.0 hr, individual monkey): 1010 ng/mL and 17400 ng/mL and 56100 ng/mL
Plasma Concentration (oral, 50 mg/monkey, PG/glycerin/Vitamin ETPGS/Tween80/Plasdone C15 formulation, 2.0 hr, individual monkey): 63500 ng/mL and 68500 ng/mL
Plasma Concentration (oral, 50 mg/monkey, PG/glycerin/Vitamin ETPGS/Tween80/Plasdone C15 formulation, 6.0 hr, individual monkey): 36300 ng/mL and 29000 ng/mL
Plasma Concentration (oral, 50 mg/monkey, PG/glycerin/Vitamin ETPGS/Tween80/Plasdone C15 formulation, 8.0 hr, individual monkey): 21800 ng/mL and 19000 ng/mL
Plasma Concentration (oral, 50 mg/monkey, PG/glycerin/Vitamin ETPGS/Tween80/Plasdone C15 formulation, 12 hr, individual monkey): 9150 ng/mL and 6750 ng/mL
Plasma Concentration (oral, 50 mg/monkey, PG/glycerin/Vitamin ETPGS/Tween80/Plasdone C15 formulation, 24 hr, individual monkey): 1490 ng/mL and 988 ng/mL
Plasma Concentration (oral, 50 mg/monkey, PG/glycerin/Vitamin ETPGS/Tween80/Plasdone C15 formulation, 48 hr, individual monkey): 635 ng/mL and 174 ng/mL and 200 ng/mL
Plasma Concentration (oral, 50 mg/monkey, PG/glycerin/Vitamin ETPGS/Tween80/Plasdone C15 formulation, 72 hr, individual monkey): BLOQ
Cmax [1]: 63500 ng/mL and 68500 ng/mL
t1/2 [1]: 5.3 h and 5.4 h
Plasma Concentration (oral, 50 mg/monkey, PG/glycerin/Vitamin ETPGS/ethanol formulation, 0.25 hr, individual monkey): BLOQ
Plasma Concentration (oral, 50 mg/monkey, PG/glycerin/Vitamin ETPGS/ethanol formulation, 0.50 hr, individual monkey): 268 ng/mL and 420 ng/mL and 49.7 ng/mL
Plasma Concentration (oral, 50 mg/monkey, PG/glycerin/Vitamin ETPGS/ethanol formulation, 1.0 hr, individual monkey): 40200 ng/mL and 23100 ng/mL
Plasma Concentration (oral, 50 mg/monkey, PG/glycerin/Vitamin ETPGS/ethanol formulation, 2.0 hr, individual monkey): 70800 ng/mL
Plasma Concentration (oral, 50 mg/monkey, PG/glycerin/Vitamin ETPGS/ethanol formulation, 4.0 hr, individual monkey): 33200 ng/mL and 59800 ng/mL
Plasma Concentration (oral, 50 mg/monkey, PG/glycerin/Vitamin ETPGS/ethanol formulation, 6.0 hr, individual monkey): 18100 ng/mL and 14000 ng/mL and 37000 ng/mL
Plasma Concentration (oral, 50 mg/monkey, PG/glycerin/Vitamin ETPGS/ethanol formulation, 8.0 hr, individual monkey): 10600 ng/mL and 10000 ng/mL and 23600 ng/mL
Plasma Concentration (oral, 50 mg/monkey, PG/glycerin/Vitamin ETPGS/ethanol formulation, 12 hr, individual monkey): 3390 ng/mL and 3450 ng/mL and 9100 ng/mL
Plasma Concentration (oral, 50 mg/monkey, PG/glycerin/Vitamin ETPGS/ethanol formulation, 24 hr, individual monkey): 922 ng/mL and 1100 ng/mL and 2000 ng/mL
Plasma Concentration (oral, 50 mg/monkey, PG/glycerin/Vitamin ETPGS/ethanol formulation, 48 hr, individual monkey): 62.6 ng/mL and 97.8 ng/mL and 286 ng/mL
Plasma Concentration (oral, 50 mg/monkey, PG/glycerin/Vitamin ETPGS/ethanol formulation, 72 hr, individual monkey): BLOQ
Cmax [2]: 50500 ng/mL and 70800 ng/mL
Dnzed AUCall [2]: 33692 ng·h/mL/mg/kg
t1/2 [2]: 7.0 h and 7.4 h
Plasma Concentration (oral, 200 mg/monkey, PG/glycerin/Vitamin ETPGS/ethanol formulation, 0.25 hr, individual monkey): 1040 ng/mL and 89.0 ng/mL
Plasma Concentration (oral, 200 mg/monkey, PG/glycerin/Vitamin ETPGS/ethanol formulation, 0.50 hr, individual monkey): 10300 ng/mL and 1740 ng/mL
Plasma Concentration (oral, 200 mg/monkey, PG/glycerin/Vitamin ETPGS/ethanol formulation, 1.0 hr, individual monkey): 88400 ng/mL and 41200 ng/mL
Plasma Concentration (oral, 200 mg/monkey, PG/glycerin/Vitamin ETPGS/ethanol formulation, 2.0 hr, individual monkey): 232000 ng/mL
Plasma Concentration (oral, 200 mg/monkey, PG/glycerin/Vitamin ETPGS/ethanol formulation, 4.0 hr, individual monkey): 138000 ng/mL
Plasma Concentration (oral, 200 mg/monkey, PG/glycerin/Vitamin ETPGS/ethanol formulation, 6.0 hr, individual monkey): 76300 ng/mL
Plasma Concentration (oral, 200 mg/monkey, PG/glycerin/Vitamin ETPGS/ethanol formulation, 12 hr, individual monkey): 23700 ng/mL
Plasma Concentration (oral, 200 mg/monkey, PG/glycerin/Vitamin ETPGS/ethanol formulation, 24 hr, individual monkey): 2180 ng/mL and 7500 ng/mL
Plasma Concentration (oral, 200 mg/monkey, PG/glycerin/Vitamin ETPGS/ethanol formulation, 48 hr, individual monkey): 547 ng/mL and 4700 ng/mL
Plasma Concentration (oral, 200 mg/monkey, PG/glycerin/Vitamin ETPGS/ethanol formulation, 72 hr, individual monkey): 117 ng/mL and 474 ng/mL
AUCall [3]: 1398.863 µg·h/mL
Cmax [3]: 232000 ng/mL
Dnzed AUCall [3]: 27977 ng·h/mL/mg/kg
t1/2 [3]: 10.1 h

From patent US20100216751A1 (priority 2007, published 2010)
